The record followed here is patent US20180110824A1, “Macrocyclic Modulators of the Ghrelin Receptor” (Ocera Therapeutics, Inc., priority 2016, published 2018).

The target in this experiment is T1, human growth hormone secretagogue receptor (hGHS-R1a) (Homo sapiens, UniProt Q92847).
T1 construct: purchased PerkinElmer BioSignal #RBHGHSM; host or cells: HEK-293, stably transfected
The experiment is described as follows: Competitive radioligand binding assay (ghrelin receptor), [125I]-ghrelin displacement on GHS-R/HEK 293 membranes.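 As to Binding Activity at the Human Ghrelin Receptor (Ki): symbols B 10-100 nM C 0.1-1 µM D 1-10 µM F above 1 µM G above 10 µM.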 The procedure:
The competitive binding assay at the human growth hormone secretagogue receptor (hGHS-R1a) was carried out analogously to assays described in the literature.
Multiscreen Harvest plates-GF/C (Millipore, #MAHFC1H60) • 4. […] Bottom seal (Millipore, #MATAH0P00) • 7. […] Binding Buffer: 25 mM Hepes (pH 7.4), 1 mM CaCl2, 5 mM MgCl2, 2.5 mM EDTA, 0.4% BSA
Competition experiments were performed in a 300 μl filtration assay format. • 1. 220 μL of membranes diluted in binding buffer • 2. 40 μL of compound diluted in binding buffer • 3.
Compounds were provided frozen on dry ice at a stock concentration of 10 mM diluted in 100% DMSO and stored at −80° C. until the day of testing. On the test day, compounds were allowed to thaw at rt O/N and then diluted in assay buffer according to the desired test concentrations. Under these conditions, the maximal final DMSO concentration in the assay was 0.1%.
Plates were sealed with TopSeal-A, vortexed gently and incubated at rt for 30 min. The reaction was arrested by filtering samples through Multiscreen Harvest plates (pre-soaked in 0.5% polyethyleneimine) using a Tomtec Harvester, washed 9 times with 500 μL of cold 50 mM Tris-HCl (pH 7.4, 4° C.), and then plates were air-dried in a fumehood 30 min. A bottom seal was applied to the plates prior to the addition of 25 μL of MicroScint-0 to each well. […] Results were expressed as counts per minute (cpm).
Data were analyzed by GraphPad Prism (GraphPad Software, San Diego, Calif.) using […] non-linear regression analysis.
where total and non-specific binding represent the cpm obtained in the absence or presence of 1 μM ghrelin, respectively.
• 1. Binding performed on membranes prepared from HEK293 expressing the transfected, cloned human ghrelin receptor (hGHS-R1a). • 2. […] Ghrelin (unlabeled, 1 μM) was used to determine non-specific binding. • 4.

[1] abbreviates: Table 3B, binding activity at the human ghrelin receptor, read-out: Ki.
Setting [2] is: Binding activity at the human ghrelin receptor, [125I]-ghrelin displacement, read-out: Ki.

Read-outs that look alike come from different tables or passages of the source.

T1 sequence (Q92847 whole entry): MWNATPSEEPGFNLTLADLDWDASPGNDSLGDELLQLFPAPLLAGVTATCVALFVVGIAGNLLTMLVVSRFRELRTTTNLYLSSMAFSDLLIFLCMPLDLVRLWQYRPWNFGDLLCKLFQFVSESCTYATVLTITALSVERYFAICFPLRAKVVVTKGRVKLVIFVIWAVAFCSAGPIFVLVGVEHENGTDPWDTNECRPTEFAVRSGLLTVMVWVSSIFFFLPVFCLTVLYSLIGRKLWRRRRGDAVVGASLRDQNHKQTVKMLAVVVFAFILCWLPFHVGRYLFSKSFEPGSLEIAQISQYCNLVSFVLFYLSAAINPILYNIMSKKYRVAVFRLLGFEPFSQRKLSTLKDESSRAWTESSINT

Consider `CCC(C)[C@@H]1NCCOc2ccccc2/C=C/CNC(=O)[C@H](Cc2ccc(F)c(F)c2)NC(=O)C2(CCCC2)NC1=O` (stereo partly drawn) [331a], for which the Ki under setting [1] was 10 to 100 nM.
`CCC(C)C1NCCOc2ccccc2C=CCNC(=O)C(Cc2cccc(C(F)(F)F)c2)NC(=O)C2(CCCC2)NC1=O` (stereo not drawn) [332a]: the Ki under setting [1] was 10 to 100 nM.
Turning to `CCC(C)[C@@H]1NCCCc2ccccc2/C=C/CNC(=O)[C@@H](Cc2ccc(F)cc2)NC(=O)[C@@H](C)N(C)C1=O` (stereo partly drawn) [353a], the Ki under setting [1] was 10 to 100 nM.
Turning to `CC(C)C[C@@H]1NCCOc2ccccc2/C=C/CNC(=O)[C@H](Cc2c[nH]cn2)NC(=O)C2(CCCC2)NC1=O` [444a], the Ki (Table 3D, read-out: Ki) was > 10000 nM.
Consider `CCC[C@@H]1NCCOc2ccccc2CCCNC(=O)[C@@H](Cc2ccccc2)NC(=O)[C@H]2CCCN2C1=O` [Compound 221], for which the Ki reads like this: (Table 3E, read-out: Ki) 100 to 1000 nM; ([125I]-ghrelin displacement, GHS-R/HEK 293 membranes, class symbols, read-out: Binding Activity at the Human Ghrelin Receptor (Ki)) 100 to 1000 nM.
With `CC(C)C[C@@H]1NCCOc2ccccc2/C=C/CNC(=O)[C@H](Cc2cccc3ccccc23)NC(=O)C2(CCCC2)NC1=O` [compound 22], the inhibition constant Ki under setting [2] lay in the range of 10 to 100 nM.
Regarding `CC[C@H](C)[C@@H]1NCCOc2ccccc2CCCNC(=O)[C@@H](Cc2cscn2)NC(=O)[C@@H](C)N(C)C1=O` [compound 33], the Ki under setting [2] lay within 100 to 1000 nM.
In the case of `CC(C)C[C@@H]1NCCOCCNC(=O)[C@H](Cc2ccccc2)NC(=O)C2(CCCC2)NC1=O` [compound 44], the Ki under setting [2] was > 10000 nM.
As to `CCC[C@@H]1NC(=O)C2(CCCC2)NC(=O)[C@H](CC(C)C)NCCOc2ccccc2/C=C/CNC1=O` [compound 48], under setting [2], the Ki is > 10000 nM.
On to `CCC[C@@H]1NCCOc2ccccc2CCCNC(=O)[C@@H](C)NC(=O)CN(C)C1=O` [compound 49], for which the Ki under setting [2] was > 10000 nM.
With `CCC[C@@H]1NCCOc2ccccc2CCCNC(=O)[C@@H](CCC(=O)O)NC(=O)CN(C)C1=O` [compound 50], the inhibition constant (Ki) under setting [2] was > 10000 nM.
On to `CCC[C@@H]1NCCOc2ccccc2CCCNC(=O)CNC(=O)CN(C)C1=O` [compound 51], for which the inhibition constant Ki under setting [2] was > 10000 nM.
Turning to `CCCC[C@H]1NC(=O)CN(C)C(=O)[C@H](CCC)NCCOc2ccccc2CCCNC1=O` [compound 52], the Ki under setting [2] is 100 to 1000 nM.
For the molecule `CCC[C@@H]1NCCOc2ccccc2CCCNC(=O)[C@@H](CCCN)NC(=O)CN(C)C1=O` [compound 53], under setting [2], the Ki is > 10000 nM.
For `CCC[C@@H]1NCCOc2ccccc2CCCNC(=O)[C@@H](CO)NC(=O)CN(C)C1=O` [compound 54], the Ki under setting [2] was > 10000 nM.
On the same count and under the same terms, under `CCC[C@H]1NCCOc2ccccc2CCCNC(=O)[C@@H](Cc2ccccc2)NC(=O)CN(C)C1=O` [compound 55] stands 1000 to 10000 nM; under `CCC[C@H]1NCCOc2ccccc2CCCNC(=O)[C@H](Cc2ccccc2)NC(=O)CN(C)C1=O` [compound 56], > 10000 nM.
Same read-out and setting: under `CCC[C@@H]1NCCOc2ccccc2CCCNC(=O)[C@H](Cc2ccccc2)NC(=O)CN(C)C1=O` [compound 57] stands 100 to 1000 nM; under `CCC[C@@H]1NCCOc2ccccc2CCCNC(=O)[C@@H](Cc2ccccc2)NC(=O)CNC1=O` [compound 61], 100 to 1000 nM; under `CCC[C@@H]1NCCOc2ccccc2CCCNC(=O)[C@@H](Cc2ccccc2)NC(=O)[C@H](CC(C)C)NC1=O` [compound 62], 1000 to 10000 nM.
Still for that read-out and setting: under `CCC[C@@H]1NCCOc2ccccc2CCCNC(=O)[C@@H](Cc2ccccc2)NC(=O)[C@@H](CC(C)C)NC1=O` [compound 63] stands > 10000 nM; under `CCC[C@@H]1NCCOc2ccccc2CCCNC(=O)[C@@H](Cc2ccccc2)NC(=O)[C@H](Cc2ccccc2)NC1=O` [compound 64], > 10000 nM.
Regarding `CCC[C@@H]1NCCOc2ccccc2CCCNC(=O)[C@@H](Cc2ccccc2)NC(=O)[C@@H](Cc2ccccc2)NC1=O` [compound 65], under setting [2], the Ki is 1000 to 10000 nM.
For the molecule `CCC[C@@H]1NCCOc2ccccc2CCCNC(=O)[C@@H](Cc2ccccc2)NC(=O)C(C)(C)NC1=O` [compound 66], under setting [2], the Ki was 100 to 1000 nM.
Turning to `CCC[C@@H]1NCCOc2ccccc2CCCNC(=O)[C@@H](Cc2ccccc2)NC(=O)C2(CCCC2)NC1=O` [compound 67], the inhibitory constant (Ki) under setting [2] is 100 to 1000 nM.
With `CCC[C@@H]1NCCOc2ccccc2CCCNC(=O)[C@@H](Cc2ccccc2)NC(=O)[C@H](CCCCN)NC1=O` [compound 68], the Ki under setting [2] fell in the range of 1000 to 10000 nM.
